According to US8802117B2 (Mavi Sud S.r.l., priority 2006, dated 2014):
“Also recorded” adds a separate entry of the source.

Tests used:
[1] = Overall in vitro and in vivo tests of tables 1-9 (fibroblast growth, ATP, collagen, IL-8, hydration, lipids, lipid peroxides, melanin); details: in association with melatonin, concentrations being equal
Protocol: Fibroblasts of NB1RGB strain were used (2×10^5 cell/ml) and suspended in the α-MEM culture medium placed in 10 Petri dishes (containing 10% foetal bovine serum (FBS), 100 units/ml penicillin and 100 µg/ml streptomycin). while two were left as control. All products were additioned in a 1 μg/ml concentration. All biochemical processes require energy that is accumulated in the form of ATP (adenosyn-triphosphate). […] Out of the 9 culture-containing Petri dishes used, 8 were additioned with 1% μg/ml of the different substances to be tested, whereas one served as control. A continuous and regular collagen synthesis is of fundamental importance for the ECM (extracellular matrix) structure, and therefore for skin elasticity and compactness and wrinkle reduction. Collagen 1 presence was verified with the use of specific antibodies on all ten cell cultures, 8 of which enriched with 1% μl/ml of the various substances directly introduced in the culture medium, and one as control. Collected blood aliquots, pre-supplemented and non-supplemented with the components under study (1 μl/ml) were subdivided into 10 Petri dishes, 8 of which were further supplemented with 10 μl/ml Tumor Necrose Factor a (TNF-α), and one left as control. […] IL-8 amounts were determined photometrically, by specific antibodies. […] During the checking, skin surface lipids and hydration were verified by 3C System. Lipid peroxides were checked with the Pugliesi method (Pugliesi P. (1990) Assessment of Antiaging Products. In: W.C. […] This experiment was meant to assess the protective activity of these compounds if and when taken orally. […] (International Units)/ml penicillin and […] streptomycin) containing 2 mM teophylline. The suspension was subdivided into 7 500-μl portions. To each portion, placed in suitable bars, […] of the various mixtures of active agents were added. Of each mixture 6 samples were prepared.

nerve cell cultures = test: Preliminary investigation of cell vitality and toxicity on nerve cell cultures (in vitro cellular models); assay type: cell-based
[2] = test system: anagen phase of hair cycle; test: Action on the anagen phase of hair cycle: lotions A, B, C on the scalp of volunteers for 60 days; assay type: in vivo, human; details: topical lotion morning and evening
Excerpt: Thirty volunteers (15 women and 15 men) suffering from general hair problems: slight thinning out, thinning, continual loss of hair and occasional formation of forms of alopecia restricted to scalp areas, were subjected to the treatment.
All subjects were given, under double-blind conditions, a lotion to be applied morning and evening by light friction, in the amount of 5/6 drops poured on the various areas and deemed sufficient for the treatment of the entire scalp.
The study lasted 60 days.
At day 0, an area of about 1 cm^2 was delimited in the anteroparietal zone of the scalp, from which hair was carefully removed. Removed hair were weighted to verify the mass thereof, and the number of follicles present was counted by a suitable grid.
At day +60, the number and weight of regrown hair were reassessed, again checking the number of follicles present.

| Compound | enhancement of melatonin action (synergy) [1] | also measured |
| --- | --- | --- |
| beta-glucan | significantly enhance the bioprotective activity of melatonin; also recorded: tendentially more active than ectoine |  |
| CC1=C[C@H](O)CC(C)(C)[C@H]1/C=C/C(C)=C/C=C/C(C)=C/C=C/C=C(C)/C=C/C=C(C)/C=C/C1=C(C)C[C@@H](O)CC1(C)C [lutein] | significantly enhance the bioprotective activity of melatonin; also recorded: further enhance the positive effects of melatonin |  |
| O=C(O)CCCCC1CCSS1 (stereo not drawn) [lipoic acid] | significantly enhance the bioprotective activity of melatonin; also recorded: further enhance the positive effects of melatonin; also recorded: tendentially more active than carotenoids |  |
| COc1ccc2[nH]cc(CCNC(C)=O)c2c1 [melatonin] |  | toxicity / reduction of cell vitality (nerve cell cultures; increasing concentrations, 3-mg melatonin alone vs association of melatonin, carotenoid, immunostimulant each 11-mg): cell vitality tends to reduce; also recorded: far more toxic; cytoprotective action towards free radicals of Oxygen (ROS), cell vitality (nerve cell cultures; suitable concentrations, in vitro model): capable of preserving cell vitality; anagen phase of hair / hair regrowth [2]: causes an increase of the anagen phase of hair, thereby enhancing its regrowth; hair weight (volume, body) [2]: without however exerting an effect on the hair weight itself |
| CC1=C(/C=C/C(C)=C/C=C/C(C)=C/C=C/C=C(C)/C=C/C=C(C)/C=C/C2=C(C)CCCC2(C)C)C(C)(C)CCC1 [beta-carotene] | significantly enhance the bioprotective activity of melatonin; also recorded: further enhance the positive effects of melatonin |  |
| CC1=NCC[C@@H](C(=O)O)N1 [ectoine] | significantly enhance the bioprotective activity of melatonin |  |
